This is an account of results in patent publication US20250059171A1 (Hoffmann-La Roche Inc., priority 2021, published 2025).

In one assay the target is SARS-CoV-2 3CLpro (Severe acute respiratory syndrome coronavirus 2, UniProt P0DTD1). Kind of assay: biochemical.
Another assay deals with HCoV-229E 3CLpro (Human coronavirus 229E, UniProt P0C6X1). Briefly: HCoV-229E 3CLpro inhibition assay (FRET). The class given is biochemical.
The next assay has as its target MERS-CoV 3CLpro (Middle East respiratory syndrome-related coronavirus, UniProt K9N7C7). Briefly: biochemical.
The target of a further assay is SARS-CoV 3CLpro (Severe acute respiratory syndrome coronavirus, UniProt P0C6X7). Briefly: biochemical.

HCoV-229E 3CLpro, sequence (P0C6X1 2966-3267): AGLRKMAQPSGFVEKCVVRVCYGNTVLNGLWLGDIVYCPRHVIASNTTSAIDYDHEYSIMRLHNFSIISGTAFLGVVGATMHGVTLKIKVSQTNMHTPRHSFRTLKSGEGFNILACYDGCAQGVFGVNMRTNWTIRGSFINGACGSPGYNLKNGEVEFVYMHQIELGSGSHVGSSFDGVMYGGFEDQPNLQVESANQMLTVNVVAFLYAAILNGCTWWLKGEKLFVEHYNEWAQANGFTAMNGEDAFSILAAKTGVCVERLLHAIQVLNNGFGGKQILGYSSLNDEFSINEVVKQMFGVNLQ
MERS-CoV 3CLpro, sequence (K9N7C7 3248-3553): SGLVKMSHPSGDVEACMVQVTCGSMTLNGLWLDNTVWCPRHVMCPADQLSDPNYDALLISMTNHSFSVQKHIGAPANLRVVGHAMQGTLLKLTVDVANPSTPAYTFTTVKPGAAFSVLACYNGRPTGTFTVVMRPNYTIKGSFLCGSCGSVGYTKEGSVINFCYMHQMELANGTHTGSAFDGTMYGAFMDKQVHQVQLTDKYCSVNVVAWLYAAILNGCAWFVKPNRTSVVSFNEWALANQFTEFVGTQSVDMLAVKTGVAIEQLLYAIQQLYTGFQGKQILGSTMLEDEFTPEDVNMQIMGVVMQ

Consider `CC(C)(C)[C@H](NC(=O)C(F)(F)F)C(=O)N1C[C@@H]2CCC[C@@H]2[C@H]1C(=O)NN(C[C@@H]1CCNC1=O)C(=O)[C@@H](F)Cl` [Example 102, N-[(1S)-1-[(3S,3aS,6aR)-3-[[[(2S)-2-chloro-2-fluoro-acetyl]-[[(3S)-2-oxopyrrolidin-3-yl]methyl]amino]carbamoyl]-3,3a,4,5,6,6a-hexahydro-1H-cyclopenta[c]pyrrole-2-carbonyl]-2,2-dimethyl-propyl]-2,2,2-trifluoro-acetamide], for which the IC50 (as a rule, the concentration needed to halve the response being measured) against SARS-CoV-2 3CLpro came out at 12 nM; at HCoV-229E 3CLpro, 112 nM; at MERS-CoV 3CLpro it was 207 nM; against SARS-CoV 3CLpro, 16 nM.

For the compound `CC(C)(C)[C@H](NC(=O)C1(F)CC1)C(=O)N1C[C@@H]2CCC[C@@H]2[C@H]1C(=O)NN(C[C@@H]1CCNC1=O)C(=O)[C@@H](F)Cl` [Example 103, N-[(1S)-1-[(3S,3aS,6aR)-3-[[[(2S)-2-chloro-2-fluoro-acetyl]-[[(3S)-2-oxopyrrolidin-3-yl]methyl]amino]carbamoyl]-3,3a,4,5,6,6a-hexahydro-1H-cyclopenta[c]pyrrole-2-carbonyl]-2,2-dimethyl-propyl]-1-fluoro-cyclopropanecarboxamide], the IC50 was determined as 13 nM against SARS-CoV-2 3CLpro, 167 nM against HCoV-229E 3CLpro, 372 nM at MERS-CoV 3CLpro and 25 nM against SARS-CoV 3CLpro.

On to `CC(C)(C)[C@H](NC(=O)[C@H]1CC1(F)F)C(=O)N1C[C@@H]2CCC[C@@H]2[C@H]1C(=O)NN(C[C@@H]1CCNC1=O)C(=O)[C@@H](F)Cl` [Example 104, (1R)—N-[(1S)-1-[(3S,3aS,6aR)-3-[[[(2S)-2-chloro-2-fluoro-acetyl]-[[(3S)-2-oxopyrrolidin-3-yl]methyl]amino]carbamoyl]-3,3a,4,5,6,6a-hexahydro-1H-cyclopenta[c]pyrrole-2-carbonyl]-2,2-dimethyl-propyl]-2,2-difluoro-cyclopropanecarboxamide], for which the IC50 on SARS-CoV-2 3CLpro came to 12 nM; against HCoV-229E 3CLpro, 55 nM; at MERS-CoV 3CLpro it was 128 nM; at SARS-CoV 3CLpro, 20 nM.

In the case of `CC[C@H](C)[C@H](NC(=O)C1(F)CCC1)C(=O)N1C[C@H]2[C@@H]([C@H]1C(=O)NN(C[C@@H]1CCNC1=O)C(=O)[C@H](F)Cl)C2(C)C` [Example 105, N-[(1S,2S)-1-[(1R,2S,5S)-2-[[[(2R)-2-chloro-2-fluoro-acetyl]-[[(3S)-2-oxopyrrolidin-3-yl]methyl]amino]carbamoyl]-6,6-dimethyl-3-azabicyclo[3.1.0]hexane-3-carbonyl]-2-methyl-butyl]-1-fluoro-cyclobutanecarboxamide], the half-maximal inhibitory concentration (IC50) at SARS-CoV-2 3CLpro is 8 nM; against HCoV-229E 3CLpro, 27 nM; at MERS-CoV 3CLpro it was 71 nM; against SARS-CoV 3CLpro, 11 nM.

In the case of `CC[C@H](C)[C@H](NC(=O)C1(F)CC1)C(=O)N1C[C@H]2[C@@H]([C@H]1C(=O)NN(C[C@@H]1CCNC1=O)C(=O)[C@@H](F)Cl)C2(C)C` [Example 106, N-[(1S,2S)-1-[(1R,2S,5S)-2-[[[(2S)-2-chloro-2-fluoro-acetyl]-[[(3S)-2-oxopyrrolidin-3-yl]methyl]amino]carbamoyl]-6,6-dimethyl-3-azabicyclo[3.1.0]hexane-3-carbonyl]-2-methyl-butyl]-1-fluoro-cyclopropanecarboxamide], the IC50 on SARS-CoV-2 3CLpro came to 33 nM; against HCoV-229E 3CLpro, 66 nM; against MERS-CoV 3CLpro, 179 nM; against SARS-CoV 3CLpro, 57 nM.

In the case of `CC[C@H](C)[C@H](NC(=O)C(F)(F)F)C(=O)N1C[C@H]2[C@@H]([C@H]1C(=O)NN(C[C@@H]1CCNC1=O)C(=O)[C@@H](F)Cl)C2(C)C` [Example 107, N-[(1S,2S)-1-[(1R,2S,5S)-2-[[[(2S)-2-chloro-2-fluoro-acetyl]-[[(3S)-2-oxopyrrolidin-3-yl]methyl]amino]carbamoyl]-6,6-dimethyl-3-azabicyclo[3.1.0]hexane-3-carbonyl]-2-methyl-butyl]-2,2,2-trifluoro-acetamide], the IC50 on SARS-CoV-2 3CLpro came out at 18 nM; against HCoV-229E 3CLpro, 40 nM; against MERS-CoV 3CLpro it was 111 nM; against SARS-CoV 3CLpro, 25 nM.

For the compound `CC[C@H](C)[C@H](NC(=O)C1CC(F)(F)C1)C(=O)N1C[C@H]2[C@@H]([C@H]1C(=O)NN(C[C@@H]1CCNC1=O)C(=O)[C@@H](F)Cl)C2(C)C` [Example 108, N-[(1S,2S)-1-[(1R,2S,5S)-2-[[[(2S)-2-chloro-2-fluoro-acetyl]-[[(3S)-2-oxopyrrolidin-3-yl]methyl]amino]carbamoyl]-6,6-dimethyl-3-azabicyclo[3.1.0]hexane-3-carbonyl]-2-methyl-butyl]-3,3-difluoro-cyclobutanecarboxamide], the concentration for half-maximal inhibition (IC50) against SARS-CoV-2 3CLpro came out at 43 nM; against HCoV-229E 3CLpro, 50 nM; on MERS-CoV 3CLpro, 127 nM; against SARS-CoV 3CLpro it was 74 nM.

Turning to `CC[C@H](C)[C@H](NC(=O)C(F)F)C(=O)N1C[C@H]2[C@@H]([C@H]1C(=O)NN(C[C@@H]1CCNC1=O)C(=O)[C@@H](F)Cl)C2(C)C` [Example 109, N-[(1S,2S)-1-[(1R,2S,5S)-2-[[[(2S)-2-chloro-2-fluoro-acetyl]-[[(3S)-2-oxopyrrolidin-3-yl]methyl]amino]carbamoyl]-6,6-dimethyl-3-azabicyclo[3.1.0]hexane-3-carbonyl]-2-methyl-butyl]-2,2-difluoro-acetamide], the IC50 at SARS-CoV-2 3CLpro came to 14 nM; at HCoV-229E 3CLpro, 29 nM; on MERS-CoV 3CLpro, 86 nM; on SARS-CoV 3CLpro, 20 nM.

Regarding `CC[C@H](C)[C@H](NC(=O)C(C)C)C(=O)N1C[C@H]2[C@@H]([C@H]1C(=O)NN(C[C@@H]1CCNC1=O)C(=O)[C@@H](F)Cl)C2(C)C` [Example 110, N-[(1S,2S)-1-[(1R,2S,5S)-2-[[[(2S)-2-chloro-2-fluoro-acetyl]-[[(3S)-2-oxopyrrolidin-3-yl]methyl]amino]carbamoyl]-6,6-dimethyl-3-azabicyclo[3.1.0]hexane-3-carbonyl]-2-methyl-butyl]-2-methyl-propanamide], the IC50 against SARS-CoV-2 3CLpro amounted to 24 nM; on HCoV-229E 3CLpro it was 37 nM; against MERS-CoV 3CLpro, 96 nM; against SARS-CoV 3CLpro it was 33 nM.

As to `CC[C@@H](C)[C@H](NC(=O)C(F)F)C(=O)N1C[C@H]2[C@@H]([C@H]1C(=O)NN(C[C@@H]1CCNC1=O)C(=O)[C@H](F)Cl)C2(C)C` [Example 112, N-[(1S,2R)-1-[(1R,2S,5S)-2-[[[(2R)-2-chloro-2-fluoro-acetyl]-[[(3S)-2-oxopyrrolidin-3-yl]methyl]amino]carbamoyl]-6,6-dimethyl-3-azabicyclo[3.1.0]hexane-3-carbonyl]-2-methyl-butyl]-2,2-difluoro-acetamide], the IC50 against SARS-CoV-2 3CLpro stood at 8 nM; at HCoV-229E 3CLpro it was 22 nM; against MERS-CoV 3CLpro, 71 nM; on SARS-CoV 3CLpro, 14 nM.

Regarding `CC[C@@H](C)[C@H](NC(=O)C1CC(F)(F)C1)C(=O)N1C[C@H]2[C@@H]([C@H]1C(=O)NN(C[C@@H]1CCNC1=O)C(=O)[C@H](F)Cl)C2(C)C` [Example 114, N-[(1S,2R)-1-[(1R,2S,5S)-2-[[[(2R)-2-chloro-2-fluoro-acetyl]-[[(3S)-2-oxopyrrolidin-3-yl]methyl]amino]carbamoyl]-6,6-dimethyl-3-azabicyclo[3.1.0]hexane-3-carbonyl]-2-methyl-butyl]-3,3-difluoro-cyclobutanecarboxamide], the IC50 on SARS-CoV-2 3CLpro came out at 17 nM; on HCoV-229E 3CLpro it was 29 nM; against MERS-CoV 3CLpro, 113 nM; against SARS-CoV 3CLpro, 25 nM.

Consider `CC[C@@H](C)[C@H](NC(=O)C1(F)CC1)C(=O)N1C[C@H]2[C@@H]([C@H]1C(=O)NN(C[C@@H]1CCNC1=O)C(=O)[C@H](F)Cl)C2(C)C` [Example 115, N-[(1S,2R)-1-[(1R,2S,5S)-2-[[[(2R)-2-chloro-2-fluoro-acetyl]-[[(3S)-2-oxopyrrolidin-3-yl]methyl]amino]carbamoyl]-6,6-dimethyl-3-azabicyclo[3.1.0]hexane-3-carbonyl]-2-methyl-butyl]-1-fluoro-cyclopropanecarboxamide], for which the IC50 against SARS-CoV-2 3CLpro was found to be 9 nM; at HCoV-229E 3CLpro it was 30 nM; against MERS-CoV 3CLpro it was 102 nM; against SARS-CoV 3CLpro it was 15 nM.

For `CC[C@@H](C)[C@H](NC(=O)[C@@H](C)F)C(=O)N1C[C@H]2[C@@H]([C@H]1C(=O)NN(C[C@@H]1CCNC1=O)C(=O)[C@H](F)Cl)C2(C)C` [Example 116, (2R)—N-[(1S,2R)-1-[(1R,2S,5S)-2-[[[(2R)-2-chloro-2-fluoro-acetyl]-[[(3S)-2-oxopyrrolidin-3-yl]methyl]amino]carbamoyl]-6,6-dimethyl-3-azabicyclo[3.1.0]hexane-3-carbonyl]-2-methyl-butyl]-2-fluoro-propanamide], the IC50 against SARS-CoV-2 3CLpro is 14 nM; at HCoV-229E 3CLpro, 36 nM; at MERS-CoV 3CLpro, 98 nM; on SARS-CoV 3CLpro, 18 nM.

For the compound `CC[C@@H](C)[C@H](NC(=O)[C@H](C)F)C(=O)N1C[C@H]2[C@@H]([C@H]1C(=O)NN(C[C@@H]1CCNC1=O)C(=O)[C@H](F)Cl)C2(C)C` [Example 117, (2S)—N-[(1S,2R)-1-[(1R,2S,5S)-2-[[[(2R)-2-chloro-2-fluoro-acetyl]-[[(3S)-2-oxopyrrolidin-3-yl]methyl]amino]carbamoyl]-6,6-dimethyl-3-azabicyclo[3.1.0]hexane-3-carbonyl]-2-methyl-butyl]-2-fluoro-propanamide], the IC50 at SARS-CoV-2 3CLpro was 11 nM; at HCoV-229E 3CLpro it was 25 nM; at MERS-CoV 3CLpro, 86 nM; on SARS-CoV 3CLpro, 11 nM.
